{"source": "paper PMC8672434", "about": "(Journal of the American Chemical Society, 2021)", "key": {"SARS-CoV-2 M^pro [1]": {"target": "T1, SARS-CoV-2 M^pro (Severe acute respiratory syndrome coronavirus 2, UniProt P0DTD1)", "format": "biochemical", "conditions": "read-out: SARS-CoV-2 M^pro IC50"}, "SARS-CoV-2 M^pro [2]": {"target": "T1, SARS-CoV-2 M^pro", "format": "binding", "conditions": "native mass spectrometry"}, "SARS-CoV-2 [3]": {"system": "SARS-CoV-2", "format": "cell-based", "conditions": "read-out: Antiviral EC50 against SARS-CoV-2 in Vero E6 cells"}, "calpain I": {"target": "calpain I (Homo sapiens, UniProt P07384)", "sequence (P07384 whole entry)": "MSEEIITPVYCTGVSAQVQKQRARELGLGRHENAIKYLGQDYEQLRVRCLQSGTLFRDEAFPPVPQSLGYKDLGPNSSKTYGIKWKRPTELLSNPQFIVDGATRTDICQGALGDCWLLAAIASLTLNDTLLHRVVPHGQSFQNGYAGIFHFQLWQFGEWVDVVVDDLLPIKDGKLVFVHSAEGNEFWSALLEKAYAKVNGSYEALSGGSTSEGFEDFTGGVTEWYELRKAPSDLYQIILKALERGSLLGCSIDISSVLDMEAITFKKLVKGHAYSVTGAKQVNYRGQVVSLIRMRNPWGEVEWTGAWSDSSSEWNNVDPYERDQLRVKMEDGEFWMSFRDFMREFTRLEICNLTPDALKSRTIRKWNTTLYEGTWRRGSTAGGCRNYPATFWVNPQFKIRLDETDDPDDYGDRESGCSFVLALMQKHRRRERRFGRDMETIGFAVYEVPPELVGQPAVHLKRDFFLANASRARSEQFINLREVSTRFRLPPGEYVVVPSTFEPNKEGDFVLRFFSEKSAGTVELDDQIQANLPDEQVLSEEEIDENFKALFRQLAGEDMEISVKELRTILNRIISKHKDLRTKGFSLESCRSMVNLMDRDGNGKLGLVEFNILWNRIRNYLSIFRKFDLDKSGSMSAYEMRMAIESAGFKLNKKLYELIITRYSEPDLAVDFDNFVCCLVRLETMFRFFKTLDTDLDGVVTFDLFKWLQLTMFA", "sequence (P04632 whole entry, further chain)": "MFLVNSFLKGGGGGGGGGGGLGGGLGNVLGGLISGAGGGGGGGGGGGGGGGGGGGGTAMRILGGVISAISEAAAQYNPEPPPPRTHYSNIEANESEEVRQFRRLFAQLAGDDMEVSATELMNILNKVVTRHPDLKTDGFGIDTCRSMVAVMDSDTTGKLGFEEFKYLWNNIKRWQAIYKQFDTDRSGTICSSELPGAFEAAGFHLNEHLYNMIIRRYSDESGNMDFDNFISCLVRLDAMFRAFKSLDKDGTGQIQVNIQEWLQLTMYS", "experiment": "Host protease selectivity, FRET-based enzymatic assay: calpain I", "format": "biochemical"}, "cathepsin B": {"target": "cathepsin B (Homo sapiens, UniProt P07858)", "experiment": "Host protease selectivity, FRET-based enzymatic assay: cathepsin B", "format": "biochemical"}, "cathepsin K": {"target": "cathepsin K (Homo sapiens, UniProt P43235)", "sequence (P43235 115-329)": "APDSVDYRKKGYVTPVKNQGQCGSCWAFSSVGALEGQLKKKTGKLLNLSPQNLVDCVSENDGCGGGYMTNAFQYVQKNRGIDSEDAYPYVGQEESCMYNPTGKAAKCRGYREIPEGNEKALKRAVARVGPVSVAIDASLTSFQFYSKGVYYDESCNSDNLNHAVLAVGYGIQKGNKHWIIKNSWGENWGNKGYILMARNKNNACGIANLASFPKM", "experiment": "Host protease selectivity, FRET-based enzymatic assay: cathepsin K", "format": "biochemical"}, "cathepsin L": {"target": "cathepsin L (Homo sapiens, UniProt P07711)", "sequence (P07711 114-333 limits assumed)": "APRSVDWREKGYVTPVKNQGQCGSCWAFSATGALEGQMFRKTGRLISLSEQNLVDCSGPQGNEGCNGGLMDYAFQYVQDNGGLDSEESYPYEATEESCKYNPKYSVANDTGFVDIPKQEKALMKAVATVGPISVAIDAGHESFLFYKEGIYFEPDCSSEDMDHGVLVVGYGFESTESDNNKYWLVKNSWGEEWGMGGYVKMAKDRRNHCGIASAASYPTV", "experiment": "Host protease selectivity, FRET-based enzymatic assay: cathepsin L", "format": "biochemical", "conditions": "for Inhibition of cathepsin L (in words): host protease selectivity"}, "caspase-3": {"target": "caspase-3 (Homo sapiens, UniProt P42574)", "sequence (P42574 29-175)": "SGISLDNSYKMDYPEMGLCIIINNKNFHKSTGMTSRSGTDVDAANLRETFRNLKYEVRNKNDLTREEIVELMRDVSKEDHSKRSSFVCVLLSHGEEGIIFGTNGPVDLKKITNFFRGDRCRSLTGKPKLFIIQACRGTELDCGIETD", "sequence (P42574 176-277)": "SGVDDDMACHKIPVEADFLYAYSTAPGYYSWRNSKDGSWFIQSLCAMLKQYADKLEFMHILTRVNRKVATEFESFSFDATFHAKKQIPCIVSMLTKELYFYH", "experiment": "Host protease selectivity, FRET-based enzymatic assay: caspase-3", "format": "biochemical", "conditions": "for Inhibition of caspase-3 (in words): host protease selectivity"}, "trypsin": {"system": "trypsin", "experiment": "Host protease selectivity, FRET-based enzymatic assay: trypsin", "format": "biochemical"}, "SARS-CoV-2 M^pro [4]": {"target": "T1, SARS-CoV-2 M^pro", "experiment": "Fast dilution experiment", "format": "biochemical", "conditions": "10 μM M^pro pre-incubated with 10 μM compound for 2 h at 30 °C, diluted 100-fold; compared with DMSO control"}, "SARS-CoV-2 M^pro [5]": {"target": "T1, SARS-CoV-2 M^pro", "experiment": "Thermal shift-binding assay", "conditions": "result in words"}, "SARS-CoV-2 [6]": {"system": "SARS-CoV-2", "format": "cell-based", "conditions": "read-out: Antiviral EC50 against SARS-CoV-2 in Calu-3 cells"}, "SARS-CoV-2 M^pro [7]": {"target": "T1, SARS-CoV-2 M^pro", "format": "cell-based", "conditions": "read-out: FlipGFP M^pro assay EC50"}}, "note": "Where “and” joins values, the source holds several entries; their conditions need not be identical. Equal entries are not always repeated. Where two headings read alike, the source gives them in different places."}
{"smiles": "C[C@H](NC(=O)[C@H](c1cccnc1)N(C(=O)C(Cl)Cl)c1ccc(-c2ccccc2)cc1)c1ccc(Br)cc1", "note": "[Jun9-90-3S]", "values": [{"measurement": "IC50", "setting": "SARS-CoV-2 M^pro [1]", "result": "> 20", "unit": "µM"}]}
{"smiles": "C[C@H](NC(=O)[C@H](c1cccnc1)N(C(=O)C(Br)(Br)Br)c1ccc(-c2ccccc2)cc1)c1ccccc1", "note": "[Jun9-88-6S]", "values": [{"measurement": "CC50", "setting": "Vero E6 cells", "result": 5.99, "unit": "µM"}]}
{"smiles": "C[C@H](NC(=O)C(c1cccnc1)N(C(=O)C(Cl)(Cl)Br)c1ccc(-c2ccccc2)cc1)c1ccccc1", "note": "(stereo partly drawn) [Jun9-89-3]", "values": [{"measurement": "CC50", "setting": "Vero E6 cells", "result": 32.4, "unit": "µM"}]}
{"smiles": "C[C@H](NC(=O)[C@@H](c1cccnc1)N(C(=O)C(Br)Br)c1ccc(-c2ccccc2)cc1)c1ccccc1", "note": "[Jun9-89-2R]", "values": [{"measurement": "IC50", "setting": "SARS-CoV-2 M^pro [1]; FRET-based enzymatic assay", "result": 0.08, "unit": "µM"}, {"measurement": "Mass modification of M^pro (covalent adduct)", "setting": "SARS-CoV-2 M^pro [2]", "result": 526, "unit": "Da"}, {"measurement": "CC50", "setting": "Vero E6 cells", "result": 8.94, "unit": "µM"}]}
{"smiles": "CC(C)C[C@H](NC(=O)OCc1ccccc1)C(=O)N[C@@H](CC1CCNC1=O)C(O)S(=O)(=O)[O-].[Na+]", "note": "(stereo partly drawn) [GC-376, reference compound]", "values": [{"measurement": "EC50", "setting": "SARS-CoV-2 [3]", "result": 1.51, "unit": "µM"}, {"measurement": "Inhibition of calpain I (in words)", "setting": "calpain I", "result": "potent inhibition"}, {"measurement": "Inhibition of cathepsin B (in words)", "setting": "cathepsin B", "result": "potent inhibition"}, {"measurement": "Inhibition of cathepsin K (in words)", "setting": "cathepsin K", "result": "potent inhibition"}, {"measurement": "Inhibition of cathepsin L (in words)", "setting": "cathepsin L", "result": "potent inhibition"}, {"measurement": "IC50", "setting": "caspase-3; read-out: Caspase-3 IC50, FRET-based enzymatic assay", "result": "> 20", "unit": "µM"}, {"measurement": "IC50", "setting": "trypsin; read-out: Trypsin IC50, FRET-based enzymatic assay", "result": "[…]"}]}
{"smiles": "CC#CC(=O)N(c1ccc(-c2ccccc2)cc1)C(C(=O)N[C@@H](C)c1ccccc1)c1cccnc1", "note": "(stereo partly drawn) [Jun9-62-1]", "values": [{"measurement": "CC50", "setting": "Vero E6 cells", "result": 18, "unit": "µM"}, {"measurement": "CC50", "setting": "Calu-3 cells", "result": 47.8, "unit": "µM"}]}
{"smiles": "C[C@H](NC(=O)[C@@H](c1cccnc1)N(C(=O)c1ccco1)c1ccc(-c2ccccc2)cc1)c1ccccc1", "note": "[23R]", "values": [{"measurement": "Recovered enzymatic activity after 100-fold dilution", "setting": "SARS-CoV-2 M^pro [4]", "result": "nearly complete recovery of enzymatic activity"}]}
{"smiles": "C[C@@H](CCc1ccccc1)NC(=O)[C@@H](c1cccnc1)N(C(=O)C(Cl)Cl)c1ccc(-c2ccccc2)cc1", "note": "[Jun9-90-4R]", "values": [{"measurement": "Tm shift of SARS-CoV-2 M^pro upon binding", "setting": "SARS-CoV-2 M^pro [5]", "result": "stabilized"}, {"measurement": "EC50", "setting": "SARS-CoV-2 [3]", "result": 1.1, "unit": "µM"}]}
{"smiles": "C[C@H](NC(=O)[C@@H](c1cccnc1)N(C(=O)C(Br)(Br)Br)c1ccc(-c2ccccc2)cc1)c1ccccc1", "note": "[Jun9-88-6R]", "values": [{"measurement": "Tm shift of SARS-CoV-2 M^pro upon binding", "setting": "SARS-CoV-2 M^pro [5]", "result": "stabilized"}, {"measurement": "Mass modification of M^pro (covalent adduct)", "setting": "SARS-CoV-2 M^pro [2]", "result": 526, "unit": "Da"}, {"measurement": "EC50", "setting": "SARS-CoV-2 [3]", "result": 0.58, "unit": "µM"}, {"measurement": "Inhibition of calpain I (in words)", "setting": "calpain I", "result": "did not show potent inhibition"}, {"measurement": "Inhibition of cathepsin B (in words)", "setting": "cathepsin B", "result": "did not show potent inhibition"}, {"measurement": "Inhibition of cathepsin K (in words)", "setting": "cathepsin K", "result": "did not show potent inhibition"}, {"measurement": "Inhibition of cathepsin L (in words)", "setting": "cathepsin L", "result": "did not show potent inhibition"}, {"measurement": "IC50", "setting": "cathepsin L; read-out: Cathepsin L IC50, FRET-based enzymatic assay", "result": 7.37, "unit": "µM"}, {"measurement": "Inhibition of caspase-3 (in words)", "setting": "caspase-3", "result": "did not show potent inhibition"}, {"measurement": "CC50", "setting": "Vero E6 cells", "result": 5.48, "unit": "µM"}]}
{"smiles": "C[C@H](NC(=O)[C@@H](c1cccnc1)N(C(=O)C(Cl)Cl)c1ccc(-c2ccccc2)cc1)c1ccc(Br)cc1", "note": "[Jun9-90-3R]", "values": [{"measurement": "Tm shift of SARS-CoV-2 M^pro upon binding", "setting": "SARS-CoV-2 M^pro [5]", "result": "stabilized"}, {"measurement": "EC50", "setting": "SARS-CoV-2 [3]", "result": 2.07, "unit": "µM"}, {"measurement": "EC50", "setting": "SARS-CoV-2 [6]", "result": 2, "unit": "µM"}]}
{"smiles": "C[C@H](NC(=O)[C@H](c1cccnc1)N(C(=O)C(Br)Br)c1ccc(-c2ccccc2)cc1)c1ccccc1", "note": "[Jun9-89-2S]", "values": [{"measurement": "IC50", "setting": "SARS-CoV-2 M^pro [1]; FRET-based enzymatic assay", "result": 2.44, "unit": "µM"}, {"measurement": "CC50", "setting": "Vero E6 cells", "result": 4.57, "unit": "µM"}]}
{"smiles": "C[C@H](NC(=O)[C@@H](c1cccnc1)N(C(=O)C(Cl)(Br)Br)c1ccc(-c2ccccc2)cc1)c1ccccc1", "note": "[Jun9-89-4R]", "values": [{"measurement": "Mass modification of M^pro (covalent adduct)", "setting": "SARS-CoV-2 M^pro [2]", "result": "481 Da and 561 Da"}, {"measurement": "CC50", "setting": "Vero E6 cells", "result": 8.41, "unit": "µM"}]}
{"smiles": "C[C@H](NC(=O)[C@@H](c1cccnc1)N(C(=O)C(Cl)Cl)c1ccc(-c2ccccc2)cc1)c1ccccc1", "note": "[Jun9-62-2R]", "values": [{"measurement": "Mass modification of M^pro (covalent adduct)", "setting": "SARS-CoV-2 M^pro [2]", "result": 482, "unit": "Da"}, {"measurement": "EC50", "setting": "SARS-CoV-2 M^pro [7]", "result": 0.96, "unit": "µM"}, {"measurement": "EC50", "setting": "SARS-CoV-2 [3]", "result": 0.9, "unit": "µM"}, {"measurement": "Inhibition of calpain I (in words)", "setting": "calpain I", "result": "did not show potent inhibition"}, {"measurement": "Inhibition of cathepsin B (in words)", "setting": "cathepsin B", "result": "did not show potent inhibition"}, {"measurement": "Inhibition of cathepsin K (in words)", "setting": "cathepsin K", "result": "did not show potent inhibition"}, {"measurement": "Inhibition of cathepsin L (in words)", "setting": "cathepsin L", "result": "did not show potent inhibition"}, {"measurement": "Inhibition of caspase-3 (in words)", "setting": "caspase-3", "result": "did not show potent inhibition"}, {"measurement": "Inhibition of trypsin (in words)", "setting": "trypsin", "result": "did not show potent inhibition"}]}
{"smiles": "C[C@H](NC(=O)[C@H](c1cccnc1)N(C(=O)C(Cl)Cl)c1ccc(-c2ccccc2)cc1)c1ccccc1", "note": "[Jun9-62-2S]", "values": [{"measurement": "IC50", "setting": "SARS-CoV-2 M^pro [1]", "result": "> 20", "unit": "µM"}]}
